From ChEMBL document CHEMBL3621093, “Design, synthesis and evaluation of thiohydantoin derivatives as potent topoisomerase I (Top1) inhibitors with anticancer activity” (Eur J Med Chem, 2015)
Activity calls are given as the source filed them. No cut-off for these calls is given here.

What was measured:
[1] = Inhibition of Leishmania donovani Top1 (large/ small subunits) expressed in Escherichia coli BL21 (DE3) pLysS cells assessed as decrease in supercoiled pBS(SK+) DNA isomer relaxation preincubated for 5 mins followed by pBS(SK+) DNA addition by agarose gel electrophoresis
DNA topoisomerase 1 = biological target: T1, DNA topoisomerase 1 (Homo sapiens, UniProt P11387); assay: Inhibition of wild type recombinant human Top1 expressed in baculovirus infected insect Sf9 cells assessed as decrease in supercoiled pBS(SK+) DNA isomer relaxation preincubated for 5 mins followed by pBS(SK+) DNA addition by agarose gel electrophoresis
T1 sequence (P11387 whole entry): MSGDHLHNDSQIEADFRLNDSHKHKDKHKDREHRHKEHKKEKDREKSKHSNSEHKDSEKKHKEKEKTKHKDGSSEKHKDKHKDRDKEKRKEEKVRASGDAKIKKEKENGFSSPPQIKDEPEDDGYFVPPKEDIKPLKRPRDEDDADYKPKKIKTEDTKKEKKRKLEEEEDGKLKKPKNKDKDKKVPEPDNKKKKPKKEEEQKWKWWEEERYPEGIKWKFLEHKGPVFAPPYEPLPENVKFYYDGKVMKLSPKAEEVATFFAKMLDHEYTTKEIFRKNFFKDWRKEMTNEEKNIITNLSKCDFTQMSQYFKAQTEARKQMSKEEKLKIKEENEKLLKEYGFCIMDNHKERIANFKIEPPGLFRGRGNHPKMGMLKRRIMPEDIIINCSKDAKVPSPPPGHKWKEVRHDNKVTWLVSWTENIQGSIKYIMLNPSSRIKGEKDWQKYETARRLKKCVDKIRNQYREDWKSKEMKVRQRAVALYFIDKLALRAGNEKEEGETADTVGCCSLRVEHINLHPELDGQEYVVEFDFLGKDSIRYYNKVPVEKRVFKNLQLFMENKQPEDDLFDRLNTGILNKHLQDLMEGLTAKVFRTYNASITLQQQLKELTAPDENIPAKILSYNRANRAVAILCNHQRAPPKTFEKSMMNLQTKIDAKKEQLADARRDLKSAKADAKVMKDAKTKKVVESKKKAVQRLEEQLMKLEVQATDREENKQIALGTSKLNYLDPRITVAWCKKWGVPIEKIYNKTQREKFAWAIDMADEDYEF

[2] = biological target: T2, DNA topoisomerase 1 (Homo sapiens) (UniProt P11387); assay: Inhibition of wild type recombinant human Top1 expressed in baculovirus infected insect Sf9 cells assessed as decrease in supercoiled pBS(SK+) DNA isomer relaxation at 5 to 200 uM incubated simultaneously with enzyme and pBS(SK+) DNA for 30 mins by agarose gel electrophoresis
T2 sequence (whole entry): T1 sequence (P11387 whole entry)

[3] = biological target: T2, DNA topoisomerase 1 (Homo sapiens); assay: Inhibition of wild type recombinant human Top1 expressed in baculovirus infected insect Sf9 cells assessed as stabilization of Top1-cleavage complexes at 50 to 200 uM incubated for 30 mins by agarose gel electrophoresis
Leishmania donovani = assay: Inhibition of Leishmania donovani Top1 (large/ small subunits) expressed in Escherichia coli BL21 (DE3) pLysS cells assessed as decrease in supercoiled pBS(SK+) DNA isomer relaxation at 5 to 200 uM incubated simultaneously with enzyme and pBS(SK+) DNA for 30 mins by agarose gel electrophoresis
[4] = biological target: T2, DNA topoisomerase 1 (Homo sapiens); assay: Inhibition of human Top1 in human MCF7 cells assessed as decrease in supercoiled pBS(SK+) DNA isomer relaxation at 5 to 200 uM incubated simultaneously with enzyme and pBS(SK+) DNA for 30 mins by agarose gel electrophoresis; assay type: cell-based
[5] = biological target: T2, DNA topoisomerase 1 (Homo sapiens); assay: Inhibition of human Top1 in human MCF7 cells assessed as decrease in supercoiled pBS(SK+) DNA isomer relaxation at 5 to 200 uM preincubated for 5 mins followed by pBS(SK+) DNA addition by agarose gel electrophoresis; assay type: cell-based
[6] = Toxicity in HEK293 cells assessed as inhibition of cell viability after 72 hrs by MTT assay; assay type: cell-based; conditions: human
MCF7 = assay: Cytotoxicity against human MCF7 cells assessed as inhibition of cell viability after 72 hrs by MTT assay; assay type: functional, cell-based; conditions: MCF7, 72 h
HCT-116 = assay: Cytotoxicity against human HCT116 cells assessed as inhibition of cell viability after 72 hrs by MTT assay; assay type: functional, cell-based; conditions: HCT-116, 72 h
HeLa = assay: Cytotoxicity against human HeLa cells assessed as inhibition of cell viability after 72 hrs by MTT assay; assay type: functional, cell-based

Compound	EC50 [1] [µM]	EC50 (DNA topoisomerase 1) [µM]	other results
Cn1cc(/C=C2/NC(=S)NC2=O)c2ccccc21	> 100	48.9	
COc1ccc(/C=C2/NC(=S)NC2=O)cc1OC	> 100	> 100	
Cc1ccc(/C=C2/NC(=O)NC2=O)cc1	> 100	> 100	
COc1ccc(-c2csc(/C=C3/NC(=S)NC3=O)c2)cn1	63.1	30.3	
COc1ccc(-c2csc(/C=C3/NC(=O)NC3=O)c2)cn1	> 100	> 100	
COc1ccc(-c2ccc(/C=C3/NC(=O)NC3=O)s2)cn1	> 100	> 100	
O=C1NC(=O)/C(=C\c2cc(Br)cs2)N1	> 100	> 100	
COc1ccc(/C=C2/NC(=O)NC2=O)cc1OC	> 100	> 100	
O=C1NC(=S)N/C1=C/c1ccc([N+](=O)[O-])cc1	> 100	> 100	
O=C1NC(=S)N/C1=C/c1cc(Br)cs1	> 100	> 100	
O=C1NC(=S)N/C1=C/c1ccc(-c2cccnc2)s1	54.8	27.7	
COc1ccc(/C=C2/NC(=S)NC2=O)cc1	> 100	> 100	
Cc1ccc(/C=C2/NC(=S)NC2=O)cc1	> 100	> 100	
COc1ccc(/C=C2/NC(=O)NC2=O)cc1C	> 100	> 100	
COc1cccc(/C=C2/NC(=S)NC2=O)c1	> 100	> 100	
COc1cc(/C=C2/NC(=O)NC2=O)cc(OC)c1OC	> 100	> 100	
COc1ccc(/C=C2/NC(=S)NC2=O)cc1C	> 100	> 100	
Cc1cc(C)cc(/C=C2/NC(=O)NC2=O)c1	> 100	> 100	
COc1cc(/C=C2/NC(=S)NC2=O)cc(OC)c1OC	> 100	93.2	
COc1ccc(-c2ccc(/C=C3/NC(=S)NC3=O)s2)cn1	65.2	10.1	inhibition [2]: Active; inhibition [3]: Active; inhibition (Leishmania donovani): Active; inhibition [4]: Active; inhibition [5]: Active; IC50 at 72 h [6]: > 50 µM; IC50 (MCF7): 11.4 µM; IC50 (HCT-116): > 50 µM; IC50 (HeLa): 1.1 µM
